The record followed here is PMC10444810, “Induction of open-form bile canaliculus formation by hepatocytes for evaluation of biliary drug excretion” (Communications Biology, 2023).

Format in all cases: in vitro ADME
What all share (conditions): for Enzyme activity, Mean: mean of Well-1 to Well-4

The target in data set [1] is T1, CYP2C19 (Homo sapiens, UniProt P33261).
T1 construct: host or cells: PXB-cells (icHep: JFC, HUM181001B; sandwich culture: JFC)
The data set can be described thus: Metabolic assay, cocktail substrate method ((S)-mephenytoin to 4’-hydroxymephenytoin). How it is done: (§1) The metabolic activity of icHep and sandwich-cultured PXB-cells was measured using the cocktail substrate method of drug-metabolizing enzymes. The components of the cocktail are summarized in Supplementary Table 1. Assays were initiated by treating cells with TB containing cocktail substrates. Time point of each substrate was set when a linear increase in its metabolite production was observed. Concentrations of metabolites produced in the medium were measured by liquid chromatography-mass spectrometry (LC-MS/MS).

Data set [2] concerns the target T2, CYP2C9 (Homo sapiens, UniProt P11712).
T2 construct: host or cells: PXB-cells (icHep: JFC, HUM181001B; sandwich culture: JFC)
The data set can be described thus: Metabolic assay, cocktail substrate method (diclofenac to 4’-hydroxydiclofenac). How it is done:
as §1

In data set [3] the target is T3, CYP2B6 (Homo sapiens, UniProt P20813).
T3 construct: host or cells: PXB-cells (icHep: JFC, HUM181001B; sandwich culture: JFC)
T3 sequence (P20813 1-491): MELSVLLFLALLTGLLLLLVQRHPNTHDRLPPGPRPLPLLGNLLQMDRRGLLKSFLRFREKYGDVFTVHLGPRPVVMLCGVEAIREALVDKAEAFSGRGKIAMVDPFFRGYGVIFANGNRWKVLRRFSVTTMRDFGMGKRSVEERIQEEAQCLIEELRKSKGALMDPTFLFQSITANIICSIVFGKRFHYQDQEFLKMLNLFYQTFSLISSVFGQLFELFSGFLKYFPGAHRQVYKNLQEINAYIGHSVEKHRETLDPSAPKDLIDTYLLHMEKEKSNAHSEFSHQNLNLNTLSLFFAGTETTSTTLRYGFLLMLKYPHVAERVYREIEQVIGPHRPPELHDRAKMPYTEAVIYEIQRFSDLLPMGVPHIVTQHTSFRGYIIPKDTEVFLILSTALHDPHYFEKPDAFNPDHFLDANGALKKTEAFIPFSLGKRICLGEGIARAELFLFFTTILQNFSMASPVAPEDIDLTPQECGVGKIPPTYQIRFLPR
Put plainly: Metabolic assay, cocktail substrate method (bupropion to hydroxybupropion). How it is done: as §1

The mark [4] stands for this setting: PXB-cells (JFC), incubation time 45 min, single wells.
Where [5] appears, read: PXB-cells (JFC), incubation time 60 min, single wells.
Where [6] appears, read: PXB-cells (JFC), incubation time 90 min, single wells.
The mark [7] stands for this setting: icHep (HUM18100B), incubation time 15 min, single wells.
Setting [8] is: icHep (HUM18100B), incubation time 30 min, single wells.
Setting [9] is: icHep (HUM18100B), incubation time 45 min, single wells.
The mark [10] stands for this setting: icHep (HUM18100B), incubation time 60 min, single wells.
Where [11] appears, read: icHep (HUM18100B), incubation time 90 min, single wells.
Setting [12] is: icHep (HUM18100B), rate per single well.
[13] abbreviates: icHep (JFC), incubation time 15 min, single wells.
[14] abbreviates: icHep (JFC), incubation time 30 min, single wells.
[15] abbreviates: icHep (JFC), incubation time 45 min, single wells.
The mark [16] stands for this setting: icHep (JFC), incubation time 60 min, single wells.
Setting [17] is: icHep (JFC), incubation time 90 min, single wells.
Where [18] appears, read: PXB-cells (JFC), incubation time 15 min, single wells.
Where [19] appears, read: icHep (JFC), rate per single well.

“And” between values parts separate entries of the source, which are not always exact repeats. Equal values may be shown once.

T2 sequence (P11712 whole entry): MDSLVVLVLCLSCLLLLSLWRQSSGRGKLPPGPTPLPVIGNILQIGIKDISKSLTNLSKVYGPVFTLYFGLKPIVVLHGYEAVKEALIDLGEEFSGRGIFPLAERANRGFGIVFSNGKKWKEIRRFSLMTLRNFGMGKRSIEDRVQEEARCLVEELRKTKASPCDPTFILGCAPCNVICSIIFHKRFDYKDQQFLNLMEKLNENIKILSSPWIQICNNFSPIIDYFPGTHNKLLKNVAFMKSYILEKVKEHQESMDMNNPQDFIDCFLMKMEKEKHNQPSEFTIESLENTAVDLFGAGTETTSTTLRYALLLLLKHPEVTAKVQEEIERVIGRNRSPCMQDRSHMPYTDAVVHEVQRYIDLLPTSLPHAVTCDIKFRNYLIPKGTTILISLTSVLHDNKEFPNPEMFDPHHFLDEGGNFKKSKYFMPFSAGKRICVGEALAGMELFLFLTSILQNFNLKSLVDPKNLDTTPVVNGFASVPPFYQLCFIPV
T1 sequence (P33261 whole entry): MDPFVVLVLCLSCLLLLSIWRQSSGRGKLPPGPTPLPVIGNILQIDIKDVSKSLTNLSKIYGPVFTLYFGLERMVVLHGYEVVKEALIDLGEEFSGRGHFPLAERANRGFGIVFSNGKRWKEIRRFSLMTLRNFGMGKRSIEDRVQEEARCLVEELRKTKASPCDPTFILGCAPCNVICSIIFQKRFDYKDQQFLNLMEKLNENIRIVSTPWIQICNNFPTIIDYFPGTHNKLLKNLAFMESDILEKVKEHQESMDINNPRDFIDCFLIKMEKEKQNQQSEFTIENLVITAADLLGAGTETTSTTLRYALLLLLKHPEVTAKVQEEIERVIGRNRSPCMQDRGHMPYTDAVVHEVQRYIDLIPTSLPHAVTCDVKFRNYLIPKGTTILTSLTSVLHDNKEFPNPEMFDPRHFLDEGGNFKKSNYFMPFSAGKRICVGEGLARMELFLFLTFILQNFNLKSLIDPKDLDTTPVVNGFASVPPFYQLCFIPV

As for `CC[C@@]1(c2ccc(O)cc2)NC(=O)N(C)C1=O` [4'-hydroxymephenytoin], the Enzyme activity in data set [1] (PXB-cells (JFC), incubation time 30 min, single wells) was 56.4054 pmol/106 cells and 48.3281 pmol/106 cells and 62.3033 pmol/106 cells and 62.1838 pmol/106 cells; in data set [1] (setting [4]), 95.7591 pmol/106 cells and 93.7057 pmol/106 cells and 89.6102 pmol/106 cells and 94.8294 pmol/106 cells; in data set [1] (setting [5]), 136.786 pmol/106 cells and 120.497 pmol/106 cells and 123.843 pmol/106 cells and 115.035 pmol/106 cells; in data set [1] (setting [6]), 86.2332 pmol/106 cells and 112.727 pmol/106 cells and 89.0355 pmol/106 cells and 99.3009 pmol/106 cells; in data set [1] (setting [7]), 50.5312 pmol/106 cells and 52.3394 pmol/106 cells and 56.2209 pmol/106 cells and 49.5383 pmol/106 cells; in data set [1] (setting [8]), 80.4095 pmol/106 cells and 100.579 pmol/106 cells and 91.6841 pmol/106 cells and 101.877 pmol/106 cells. Moreover, the Enzyme activity in data set [1] (setting [9]) was 142.367 pmol/106 cells and 129.072 pmol/106 cells and 120.304 pmol/106 cells and 122.788 pmol/106 cells; in data set [1] (setting [10]) it was 162.513 pmol/106 cells and 158.829 pmol/106 cells and 171.479 pmol/106 cells and 144.395 pmol/106 cells; in data set [1] (setting [11]) it was 188.684 pmol/106 cells and 187.153 pmol/106 cells and 171.43 pmol/106 cells and 198.851 pmol/106 cells; in data set [1] (setting [12]), 3.06 pmol/min/106 cells and 2.56 pmol/min/106 cells and 2.14 pmol/min/106 cells and 2.44 pmol/min/106 cells; in data set [1] (setting [13]), 42.1708 pmol/106 cells and 39.5525 pmol/106 cells and 21.6896 pmol/106 cells and 37.3866 pmol/106 cells; in data set [1] (setting [14]), 65.4216 pmol/106 cells and 67.8652 pmol/106 cells and 74.7797 pmol/106 cells and 75.4174 pmol/106 cells. Moreover, the Enzyme activity is 91.82 pmol/106 cells and 75.2152 pmol/106 cells and 103.29 pmol/106 cells and 100.957 pmol/106 cells in data set [1] (setting [15]); 121.361 pmol/106 cells and 85.9573 pmol/106 cells and 140.345 pmol/106 cells and 108.521 pmol/106 cells in data set [1] (setting [16]); 124.213 pmol/106 cells and 122.549 pmol/106 cells and 116.257 pmol/106 cells and 126.058 pmol/106 cells in data set [1] (setting [17]). Moreover, the “Enzyme activity, Mean” value in data set [1] (PXB-cells (JFC)) amounted to 2.25 pmol/min/106 cells; in data set [1] (icHep (HUM18100B)), 2.55 pmol/min/106 cells; in data set [1] (icHep (JFC)) it was 2.38 pmol/min/106 cells.

Consider `O=C(O)Cc1ccccc1Nc1c(Cl)cc(O)cc1Cl` [4'-Hydroxydiclofenac], for which the Enzyme activity was 32.4909 pmol/106 cells and 28.9867 pmol/106 cells and 32.417 pmol/106 cells and 39.4949 pmol/106 cells in data set [2] (setting [18]); 103.35 pmol/106 cells and 157.866 pmol/106 cells and 142.816 pmol/106 cells and 89.3242 pmol/106 cells in data set [2] (setting [4]); 194.793 pmol/106 cells and 123.239 pmol/106 cells and 152.615 pmol/106 cells and 131.028 pmol/106 cells in data set [2] (setting [5]); 221.365 pmol/106 cells and 186.616 pmol/106 cells and 184.241 pmol/106 cells and 181.726 pmol/106 cells in data set [2] (setting [6]); 62.619 pmol/106 cells and 66.4901 pmol/106 cells and 58.8292 pmol/106 cells and 61.6593 pmol/106 cells in data set [2] (setting [7]); 81.779 pmol/106 cells and 78.031 pmol/106 cells and 78.5116 pmol/106 cells and 74.8686 pmol/106 cells in data set [2] (setting [8]). The Enzyme activity is 182.486 pmol/106 cells and 164.871 pmol/106 cells and 179.779 pmol/106 cells and 151.258 pmol/106 cells in data set [2] (setting [9]); 261.919 pmol/106 cells and 224.09 pmol/106 cells and 240.209 pmol/106 cells and 233.857 pmol/106 cells in data set [2] (setting [10]); 338.304 pmol/106 cells and 344.261 pmol/106 cells and 316.721 pmol/106 cells and 314.843 pmol/106 cells in data set [2] (setting [11]); 6.00 pmol/min/106 cells and 4.87 pmol/min/106 cells and 5.39 pmol/min/106 cells and 5.30 pmol/min/106 cells in data set [2] (setting [12]); 37.2763 pmol/106 cells and 45.1543 pmol/106 cells and 35.8326 pmol/106 cells and 34.722 pmol/106 cells in data set [2] (setting [13]); 59.5169 pmol/106 cells and 77.189 pmol/106 cells and 52.7871 pmol/106 cells and 61.7238 pmol/106 cells in data set [2] (setting [14]). Also, the Enzyme activity in data set [2] (setting [15]) was 104.976 pmol/106 cells and 107.851 pmol/106 cells and 132.309 pmol/106 cells and 91.4661 pmol/106 cells; in data set [2] (setting [16]), 189.516 pmol/106 cells and 192.792 pmol/106 cells and 199.605 pmol/106 cells and 200.079 pmol/106 cells; in data set [2] (setting [17]), 261.512 pmol/106 cells and 227.854 pmol/106 cells and 218.992 pmol/106 cells and 224.098 pmol/106 cells; in data set [2] (setting [19]), 4.33 pmol/min/106 cells and 3.85 pmol/min/106 cells and 4.89 pmol/min/106 cells and 4.61 pmol/min/106 cells. The figures for the “Enzyme activity, Mean” value in data set [2] (PXB-cells (JFC)), in data set [2] (icHep (HUM18100B)) and in data set [2] (icHep (JFC)) were 3.17 pmol/min/106 cells, 5.39 pmol/min/106 cells and 4.42 pmol/min/106 cells, respectively.

For the molecule `C[C@H]1NC(C)(C)CO[C@]1(O)c1cccc(Cl)c1` [Hydroxybupropion], the Enzyme activity is 28.7722 pmol/106 cells and 21.7302 pmol/106 cells and 27.8435 pmol/106 cells and 35.831 pmol/106 cells in data set [3] (setting [18]); 59.3541 pmol/106 cells and 57.6847 pmol/106 cells and 69.4473 pmol/106 cells and 46.5889 pmol/106 cells in data set [3] (setting [4]); 62.0864 pmol/106 cells and 73.8816 pmol/106 cells and 59.3241 pmol/106 cells and 58.6637 pmol/106 cells in data set [3] (setting [5]); 76.5226 pmol/106 cells and 51.4054 pmol/106 cells and 51.8001 pmol/106 cells and 50.3819 pmol/106 cells in data set [3] (setting [6]); 25.5794 pmol/106 cells and 30.4047 pmol/106 cells and 24.7422 pmol/106 cells and 24.915 pmol/106 cells in data set [3] (setting [7]); 35.9071 pmol/106 cells and 54.335 pmol/106 cells and 43.958 pmol/106 cells and 62.1937 pmol/106 cells in data set [3] (setting [8]). The Enzyme activity in data set [3] (setting [9]) was 67.877 pmol/106 cells and 59.438 pmol/106 cells and 65.4881 pmol/106 cells and 59.5632 pmol/106 cells; in data set [3] (setting [10]), 76.2731 pmol/106 cells and 66.7099 pmol/106 cells and 66.2746 pmol/106 cells and 64.1847 pmol/106 cells; in data set [3] (setting [11]), 84.2201 pmol/106 cells and 81.8175 pmol/106 cells and 75.5651 pmol/106 cells and 70.6836 pmol/106 cells; in data set [3] (setting [12]), 1.41 pmol/min/106 cells and 0.968 pmol/min/106 cells and 1.36 pmol/min/106 cells and 1.15 pmol/min/106 cells; in data set [3] (setting [13]) it was 26.9509 pmol/106 cells and 26.6361 pmol/106 cells and 28.1971 pmol/106 cells and 21.5678 pmol/106 cells; in data set [3] (setting [14]), 50.8052 pmol/106 cells and 52.8459 pmol/106 cells and 41.4458 pmol/106 cells and 41.1487 pmol/106 cells. The Enzyme activity was 61.1962 pmol/106 cells and 63.9863 pmol/106 cells and 63.4142 pmol/106 cells and 59.0445 pmol/106 cells in data set [3] (setting [15]); 56.6821 pmol/106 cells and 56.5302 pmol/106 cells and 54.8514 pmol/106 cells and 60.04 pmol/106 cells in data set [3] (setting [16]); 69.6732 pmol/106 cells and 73.6155 pmol/106 cells and 56.0547 pmol/106 cells and 49.9876 pmol/106 cells in data set [3] (setting [17]); 1.14 pmol/min/106 cells and 1.25 pmol/min/106 cells and 1.17 pmol/min/106 cells in data set [3] (setting [19]). Further, the “Enzyme activity, Mean” value is 0.991 pmol/min/106 cells in data set [3] (PXB-cells (JFC)), 1.22 pmol/min/106 cells in data set [3] (icHep (HUM18100B)) and 1.20 pmol/min/106 cells in data set [3] (icHep (JFC)).
